These compounds were tested against T1, Cbl-b (Homo sapiens, UniProt Q13191) (assay: Cbl-b LCK Ub TR-FRET assay). Settings: Biotin-Cbl-b, His-LCK; no LCK as low control, DMSO as high control; IC50s binned A through C; read-out: CBL-B_TR-FRET_AVG_IC50.
T1 construct: Biotin (biotinylated protein)
T1 sequence (Q13191 10-426): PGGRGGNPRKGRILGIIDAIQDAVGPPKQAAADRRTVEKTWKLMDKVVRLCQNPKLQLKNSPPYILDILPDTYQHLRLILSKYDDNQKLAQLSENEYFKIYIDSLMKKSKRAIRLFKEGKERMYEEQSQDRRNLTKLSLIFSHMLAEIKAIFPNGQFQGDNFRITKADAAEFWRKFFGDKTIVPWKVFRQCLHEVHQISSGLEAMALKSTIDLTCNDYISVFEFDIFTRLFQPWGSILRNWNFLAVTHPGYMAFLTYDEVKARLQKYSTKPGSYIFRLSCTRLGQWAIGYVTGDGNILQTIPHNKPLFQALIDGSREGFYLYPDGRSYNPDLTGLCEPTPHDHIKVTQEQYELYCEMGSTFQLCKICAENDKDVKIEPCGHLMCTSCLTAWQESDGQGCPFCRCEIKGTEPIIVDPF
Format: biochemical
Procedure: Compounds are 3-told serially diluted in DMSO in a 384-well polypropylene plate (e.g., #P-05525-BC; Labcyte) to generate a source plate with 10 concentrations of each compound, top concentration=2 mM. 80 nL of DMSO or compounds are transferred to each well of a black 384-well ProxiPlate (e.g., #6008260; PerkinElmer) using a Labcyte Echo. 1× assay buffer (50 mM HEPES pH7.0, 100 mM NaCl, 0.01% BSA, 0.01% Triton-X100, 1 mM DTT), 2× enzyme solution (16 nM Biotin-Cbl-b or 12 nM Biotin-c-Cbl in 1× assay buffer), 2× kinase mixture (120 nM His-LCK, 1 mM ATP, 10 mM MgCl2 in assay buffer) and 2.33× detection mixture (4.66× solution 1:163 nM Anti-HA-D2 antibody (e.g., #610HADAB; PerkinElmer), 27.96 nM Streptavidin-EU (e.g., #AD0062; PerkinElmer), 1.398 mM EDTA in 1× assay buffer+4.66× solution 2: […] UBE2D2/Methylated-HA-Ubiquitin thioester adduct (e.g., BostonBiochem) in 1× assay buffer) are prepared. […] of 2× enzyme solution are added to each well containing compound, briefly centrifuged to mix, and incubated for 60 min at room temperature. […] of 2× kinase mixture is added, briefly centrifuged to mix, and incubated for 90 min. at room temperature. […] of detection mixture is added to all wells and briefly centrifuged before incubating for 20 min at room temperature. Plates are read for TR-FRET using an Envision at excitation 340 nm, emission at 615 and 665 nm, 4 flashes per well. IC50 is generated using no LCK as the low control and DMSO as the high control. Compound IC50s were binned into A through C as follows: A indicates <100 nM, B indicates 100 nM-500 nM, and C indicates >500 nM.
With `Cn1cnnc1-c1cc(F)ccc1-c1cccc(-n2cc3c(C(F)(F)F)cc(CNCC4(O)CCC4)cn3c2=O)c1` [Compound 1] the IC50 was < 100 nM. For `C[C@H]1CCCN(Cc2cc(C(F)(F)F)c3cn(-c4cc(-c5ccc(F)cc5-c5nncn5C)cc(C5CC5)n4)c(=O)n3c2)C1` [Compound 2], the IC50 was > 500 nM. With `C[C@H]1CCCN(Cc2cc(C(F)(F)F)c3cn(-c4cc(-c5ccc(F)cc5-c5nncn5C)cc(Cl)n4)c(=O)n3c2)C1` [Compound 3] the IC50 was > 500 nM. For `C[C@H]1CCCN(Cc2cc(C(F)(F)F)c3cn(-c4cc(-c5ccc(F)cc5-c5nncn5C)cc(Br)n4)c(=O)n3c2)C1` [Compound 4], the IC50 was > 500 nM.
